molecular target: T1, human CTPS1 (Homo sapiens, UniProt P17812); assay: ADP-Glo assay, human CTPS1 enzyme inhibition; format: biochemical; conditions: wild-type human CTPS1, 25 nM enzyme; ADP-Glo; read-out: ADP-Glo_WT_hCTPS1—25 nM_IC50 (IC50)
T1 sequence (P17812 1-591): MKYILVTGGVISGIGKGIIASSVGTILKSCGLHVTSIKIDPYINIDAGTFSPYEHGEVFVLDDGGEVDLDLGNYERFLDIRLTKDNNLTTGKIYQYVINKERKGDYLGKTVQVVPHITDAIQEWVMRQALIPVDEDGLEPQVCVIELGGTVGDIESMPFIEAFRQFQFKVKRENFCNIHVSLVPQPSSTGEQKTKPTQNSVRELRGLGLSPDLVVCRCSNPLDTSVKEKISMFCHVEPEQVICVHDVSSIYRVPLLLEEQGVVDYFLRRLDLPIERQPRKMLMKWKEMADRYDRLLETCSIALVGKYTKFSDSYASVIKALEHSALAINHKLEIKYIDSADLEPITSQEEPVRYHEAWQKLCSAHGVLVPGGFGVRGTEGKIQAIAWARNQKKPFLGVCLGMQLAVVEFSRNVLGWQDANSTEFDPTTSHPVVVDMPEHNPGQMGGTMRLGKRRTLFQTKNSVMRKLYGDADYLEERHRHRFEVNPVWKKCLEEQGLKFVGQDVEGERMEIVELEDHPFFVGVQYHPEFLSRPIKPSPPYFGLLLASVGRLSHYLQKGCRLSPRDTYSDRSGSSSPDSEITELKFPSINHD
Procedure: The enzyme inhibitory activities of the compounds of the invention against the target of interest were determined using the ADP-Glo™ assay (Promega). Assays for human CTPS1 and CTPS2 were performed in 1× assay buffer containing 50 mM HEPES (Life Technologies), 10 mM Mg2+, 5 mM KCl, 2 mM DTT, 0.01% F-127, pH to 7.4 accordingly. All reagents are from Sigma-Aldrich, unless specified otherwise. Purified human full length active N-terminal FLAG-8×HIS-TEV tagged CTPS1 (UniprotKB—P17812, […]-CTPS1[1-591]) was generated using a mammalian expression system at Viva Biotech (Shanghai) Ltd.
Purified human CTPS1 protein was prepared in 1× assay buffer to the final working protein concentration required for the reaction. A 2.5 μL volume per well of human CTPS 1 protein was mixed with 0.1 μL per well of test compound dissolved in DMSO and pre-incubated at 25 degrees C. for 10 minutes. 2.5 μL per well of the reaction precursors ATP (UltraPure ATP from ADP-Glo™ kit) and UTP were then added and pre-incubated for an additional 10 minutes at 25 degrees C. Finally, the reaction was initiated by the addition of 5 μL of the reaction precursors L-glutamine and GTP. The final concentration of all reaction components in the assay: ATP (120 μM), UTP (160 μM), GTP (60 μM), L-Glutamine (100 μM), DMSO (1%), hCTPS1 (25 nM). This mixture was incubated for an appropriate amount of time within the determined linear phase of the reaction at 25 degrees C. under sealed plate conditions with constant agitation at 500 revolutions per minute (rpm). ADP-Glo™ reagent was added for 60 minutes (10 μL per well) and subsequently ADP-Glo™ development reagent was added for 60 minutes (20 μL per well) prior to signal detection in a microplate reader (Envision Multilabel Reader, Perkin Elmer). Following each reagent addition over the course of the assay, assay plates were pulse centrifuged for 1 minute at 1000 rpm.
The enzyme converts ATP to ADP and the ADP-Glo™ reagent subsequently depletes any remaining ATP in the reaction system. The ADP-Glo™ detection reagents converts the ADP that has been produced by the enzyme back into ATP, which is then utilized as a substrate together with luciferin for the enzyme luciferase. Light generated by this chemiluminescent reaction is quantified and is directly proportional to the amount of ADP produced by the CTPS1 enzyme reaction. […]

Row | IC50 [nM] | SMILES
1 | 5 to 25 | CCOc1cncc(-c2cnc(C(=O)N[C@H](Cn3ccnn3)c3cc(NS(=O)(=O)C4CC4)ccn3)s2)n1 [I-156, (R)-N-(1-(4-(cyclopropanesulfonamido)pyridin-2-yl)-2-(1H-1,2,3-triazol-1-yl)ethyl)-5-(6-ethoxypyrazin-2-yl)thiazole-2-carboxamide]
2 | 25 to 50 | CCOc1cncc(-c2cnc(C(=O)N[C@@H](CN3CC4(CCC4)C3)c3cc(NS(=O)(=O)C4CC4)ccn3)s2)n1 [I-153, (S)-N-(1-(4-(cyclopropanesulfonamido)pyridin-2-yl)-2-(2-azaspiro[3.3]heptan-2-yl)ethyl)-5-(6-ethoxypyrazin-2-yl)thiazole-2-carboxamide]
3 | 5 to 25 | CCOc1cncc(-c2cnc(C(=O)N[C@H](CN3CCOC[C@H]3C)c3cc(NS(=O)(=O)C4CC4)ccn3)s2)n1 (single isomer, unassigned) [I-33]
4 | 5 to 25 | CCOc1cncc(-c2cnc(C(=O)N[C@@H](COC)c3nccc(NS(=O)(=O)C4CC4)c3F)s2)n1 (single isomer, unassigned) [I-11]
5 | 5 to 25 | CCOc1cncc(-c2cnc(C(=O)N[C@@H](c3cc(NS(=O)(=O)C4CC4)ncn3)[C@H]3CCOC3)s2)n1 [I-258, N-((R)-(6-(cyclopropanesulfonamido)pyrimidin-4-yl)((R)-tetrahydrofuran-3-yl)methyl)-5-(6-ethoxypyrazin-2-yl)thiazole-2-carboxamide]
6 | 50 to 100 | CCOc1cncc(-c2cnc(C(=O)N[C@@H](CCN(C)C3CCCCC3)c3cc(NS(=O)(=O)C4CC4)ccn3)s2)n1 (single isomer, unassigned) [I-13]
7 | ≤ 5 | CCOc1cncc(-c2cnc(C(=O)N[C@@H](c3cc(NS(=O)(=O)C4CC4)ccn3)[C@H]3CCN(CCF)C3)s2)n1 [I-110, N-((R)-(4-(cyclopropanesulfonamido)pyridin-2-yl)((S)-1-(2-fluoroethyl)pyrrolidin-3-yl)methyl)-5-(6-ethoxypyrazin-2-yl)thiazole-2-carboxamide]
8 | 5 to 25 | O=C(N[C@@H](CN1CCOCC1)c1cc(NS(=O)(=O)C2CC2)ccn1)c1ncc(-c2cnn3ccc(Cl)cc23)s1 [I-145, (S)-5-(5-chloropyrazolo[1,5-a]pyridin-3-yl)-N-(1-(4-(cyclopropanesulfonamido)pyridin-2-yl)-2-morpholinoethyl)thiazole-2-carboxamide]
9 | > 100 | O=C(N[C@@H](CCN1CCCCC1)c1cc(NS(=O)(=O)C2CC2)ccn1)c1ncc(-c2cnn3ccc(Cl)cc23)s1 (single isomer, unassigned) [I-9]
10 | 25 to 50 | CCOc1cncc(-c2cnc(C(=O)N[C@H](CN3CCN(C4CC4)CC3)c3cccc(NS(=O)(=O)C(F)F)c3)s2)n1 (single isomer, unassigned) [I-40]
11 | 50 to 100 | CCOc1cncc(-c2cnc(C(=O)N[C@H](CC(C)(C)N(C)C)c3cc(NS(=O)(=O)C4CC4)ccn3)s2)n1 [I-49, (R)-N-(1-(4-(cyclopropanesulfonamido)pyridin-2-yl)-3-(dimethylamino)-3-methylbutyl)-5-(6-ethoxypyrazin-2-yl)thiazole-2-carboxamide]
12 | 5 to 25 | CCOc1cncc(-c2cnc(C(=O)N[C@H](c3cccc(NS(=O)(=O)C(F)F)c3)[C@@H](C)N3CCOCC3)s2)n1 [I-224, N-((1R,2R)-1-(3-((difluoromethyl)sulfonamido)phenyl)-2-morpholinopropyl)-5-(6-ethoxypyrazin-2-yl)thiazole-2-carboxamide]
13 | 50 to 100 | CCOc1cncc(-c2cnc(C(=O)N[C@@H](c3cc(NS(=O)(=O)C4CC4)ccn3)[C@@H](C)CN3CCCCC3)s2)n1 (stereo in doubt) [I-52, N-((1R,2S)-1-(4-(cyclopropanesulfonamido)pyridin-2-yl)-2-methyl-3-(piperidin-1-yl)propyl)-5-(6-ethoxypyrazin-2-yl)thiazole-2-carboxamide]
14 | 5 to 25 | CCOc1cncc(-c2cnc(C(=O)N[C@@H](C)c3cc(NS(=O)(=O)C4CC4)ccn3)s2)n1 [I-177, (S)-N-(1-(4-(cyclopropanesulfonamido)pyridin-2-yl)ethyl)-5-(6-ethoxypyrazin-2-yl)thiazole-2-carboxamide]
15 | 5 to 25 | CCOc1cncc(-c2cnc(C(=O)N[C@H](c3cccc(NS(=O)(=O)C(F)F)c3)[C@H]3COCCO3)s2)n1 [I-198, N-((R)-(3-((difluoromethyl)sulfonamido)phenyl)((S)-1,4-dioxan-2-yl)methyl)-5-(6-ethoxypyrazin-2-yl)thiazole-2-carboxamide]
16 | 5 to 25 | CCOc1cncc(-c2cnc(C(=O)N[C@@H](c3cc(NS(=O)(=O)C4CC4)ccn3)[C@H]3CN(C)CCO3)s2)n1 [I-100, N-((S)-(4-(cyclopropanesulfonamido)pyridin-2-yl)((R)-4-methylmorpholin-2-yl)methyl)-5-(6-ethoxypyrazin-2-yl)thiazole-2-carboxamide]
17 | 5 to 25 | CCOc1cncc(-c2cnc(C(=O)N[C@H](c3cc(NS(=O)(=O)C4CC4)ccn3)[C@@H](C)CO)s2)n1 [I-228, N-((1S,2R)-1-(4-(cyclopropanesulfonamido)pyridin-2-yl)-3-hydroxy-2-methylpropyl)-5-(6-ethoxypyrazin-2-yl)thiazole-2-carboxamide]
18 | 5 to 25 | C[C@@H](CO)[C@H](NC(=O)c1ncc(-c2cnn3ccc(Cl)cc23)s1)c1cc(NS(=O)(=O)C2CC2)ccn1 [I-232, 5-(5-chloropyrazolo[1,5-a]pyridin-3-yl)-N-((1S,2R)-1-(4-(cyclopropanesulfonamido)pyridin-2-yl)-3-hydroxy-2-methylpropyl)thiazole-2-carboxamide]
19 | 5 to 25 | O=C(N[C@]1(c2cc(NS(=O)(=O)C3CC3)ccn2)C[C@@H](O)C1)c1ncc(-c2cnn3ccc(Cl)cc23)s1 [I-90, 5-(5-chloropyrazolo[1,5-a]pyridin-3-yl)-N-((1r,3r)-1-(4-(cyclopropanesulfonamido)pyridin-2-yl)-3-hydroxycyclobutyl)thiazole-2-carboxamide]
20 | > 100 | CCOc1cncc(-c2cnc(C(=O)N[C@@H](CCN3CCCC4(CC4)C3)c3cc(NS(=O)(=O)C4CC4)ccn3)s2)n1 (single isomer, unassigned) [I-18]
21 | 5 to 25 | CCOc1cncc(-c2cnc(C(=O)N[C@@H](CN3CC[C@]4(CCOC4)C3)c3cc(NS(=O)(=O)C4CC4)ccn3)s2)n1 [I-127, N-((S)-1-(4-(cyclopropanesulfonamido)pyridin-2-yl)-2-((S)-2-oxa-7-azaspiro[4.4]nonan-7-yl)ethyl)-5-(6-ethoxypyrazin-2-yl)thiazole-2-carboxamide]
22 | ≤ 5 | CCOc1cncc(-c2cnc(C(=O)N[C@@H](c3cc(NS(=O)(=O)C4CC4)ccn3)[C@H](C)CO)s2)n1 [I-227, N-((1R,2S)-1-(4-(cyclopropanesulfonamido)pyridin-2-yl)-3-hydroxy-2-methylpropyl)-5-(6-ethoxypyrazin-2-yl)thiazole-2-carboxamide]
23 | 5 to 25 | CCOc1cncc(-c2cnc(C(=O)N[C@@H](c3cc(NS(=O)(=O)C4CC4)ccn3)C3CCOCC3)s2)n1 [I-19, (R)—N-((4-(cyclopropanesulfonamido)pyridin-2-yl)(tetrahydro-2H-pyran-4-yl)methyl)-5-(6-ethoxypyrazin-2-yl)thiazole-2-carboxamide]
24 | 5 to 25 | CCOc1cncc(-c2cnc(C(=O)N[C@@H](c3cc(NS(=O)(=O)C4CC4)ccn3)[C@@H]3CC(=O)N(C)C3)s2)n1 [I-121, N-((R)-(4-(cyclopropanesulfonamido)pyridin-2-yl)((R)-1-methyl-5-oxopyrrolidin-3-yl)methyl)-5-(6-ethoxypyrazin-2-yl)thiazole-2-carboxamide]
25 | 5 to 25 | O=C(N[C@H](c1cc(NS(=O)(=O)C2CC2)ccn1)[C@H]1CCOC1)c1ncc(-c2cnn3ccc(Cl)cc23)s1 (single isomer, unassigned) [I-22]
